Results on eight compounds are retold here after patent US20210070748A1, “INHIBITORS OF BRUTONS TYROSINE KINASE” (Pharmacyclics LLC, priority 2015, published 2021).

Each structure is given as a SMILES string.

What is called IC50 is the concentration that gives 50% inhibition.

Common to all, as to format: biochemical
Common to all, as to conditions: D-compounds panel data; 1 μM ATP

One assay deals with T1, TEC (Homo sapiens, UniProt P42680).
T1 sequence (P42680 1-631): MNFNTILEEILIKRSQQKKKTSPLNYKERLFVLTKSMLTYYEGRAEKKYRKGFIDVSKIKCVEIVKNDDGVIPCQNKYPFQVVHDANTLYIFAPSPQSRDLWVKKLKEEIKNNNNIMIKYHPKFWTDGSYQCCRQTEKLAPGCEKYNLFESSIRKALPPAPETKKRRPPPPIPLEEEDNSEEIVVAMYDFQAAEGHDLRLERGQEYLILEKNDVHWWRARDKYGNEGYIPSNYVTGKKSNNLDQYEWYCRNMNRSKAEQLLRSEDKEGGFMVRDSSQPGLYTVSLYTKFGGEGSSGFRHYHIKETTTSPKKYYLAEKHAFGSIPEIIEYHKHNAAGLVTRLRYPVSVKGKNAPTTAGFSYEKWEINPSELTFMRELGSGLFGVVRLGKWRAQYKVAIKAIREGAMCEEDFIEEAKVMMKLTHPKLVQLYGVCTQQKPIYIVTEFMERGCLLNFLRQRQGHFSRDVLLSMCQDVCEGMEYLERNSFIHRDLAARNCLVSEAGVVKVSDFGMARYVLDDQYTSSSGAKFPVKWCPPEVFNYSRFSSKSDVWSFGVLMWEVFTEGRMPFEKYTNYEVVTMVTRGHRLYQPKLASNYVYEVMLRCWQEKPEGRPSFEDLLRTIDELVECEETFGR
The assay can be described thus: Inhibition of a panel of kinases, in vitro HotSpot kinase assay: TEC. On the procedure:
(§1) The degree of inhibition of a panel of kinases is determined using the in vitro HotSpot kinase assay (purified enzymes, ^33P-ATP, an appropriate substrate and 1 μM ATP).

In another assay the target is SRC (Homo sapiens, UniProt P12931). Put plainly: Inhibition of a panel of kinases, in vitro HotSpot kinase assay: SRC. The method, then:
as §1

The target in the next assay is T2, ITK (Homo sapiens, UniProt Q08881).
T2 sequence (Q08881 1-620): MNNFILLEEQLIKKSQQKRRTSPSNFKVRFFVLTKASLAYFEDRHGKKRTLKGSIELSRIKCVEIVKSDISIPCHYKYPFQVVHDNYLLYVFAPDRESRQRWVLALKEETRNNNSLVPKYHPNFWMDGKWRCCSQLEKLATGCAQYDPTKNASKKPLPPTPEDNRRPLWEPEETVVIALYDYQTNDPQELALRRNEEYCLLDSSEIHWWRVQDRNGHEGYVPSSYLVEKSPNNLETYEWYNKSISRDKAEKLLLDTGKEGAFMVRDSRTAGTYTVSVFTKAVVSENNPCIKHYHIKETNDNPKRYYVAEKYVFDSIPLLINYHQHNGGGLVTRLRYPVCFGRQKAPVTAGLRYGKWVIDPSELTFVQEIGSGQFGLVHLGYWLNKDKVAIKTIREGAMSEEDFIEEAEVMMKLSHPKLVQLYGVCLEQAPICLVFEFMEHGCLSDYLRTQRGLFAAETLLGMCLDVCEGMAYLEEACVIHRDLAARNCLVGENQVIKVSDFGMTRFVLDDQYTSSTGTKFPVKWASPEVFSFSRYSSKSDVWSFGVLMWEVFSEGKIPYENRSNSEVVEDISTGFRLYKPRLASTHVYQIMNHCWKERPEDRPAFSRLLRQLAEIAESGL
The assay can be described thus: Inhibition of a panel of kinases, in vitro HotSpot kinase assay: ITK. On the procedure:
as §1

SRC, sequence (P12931 whole entry): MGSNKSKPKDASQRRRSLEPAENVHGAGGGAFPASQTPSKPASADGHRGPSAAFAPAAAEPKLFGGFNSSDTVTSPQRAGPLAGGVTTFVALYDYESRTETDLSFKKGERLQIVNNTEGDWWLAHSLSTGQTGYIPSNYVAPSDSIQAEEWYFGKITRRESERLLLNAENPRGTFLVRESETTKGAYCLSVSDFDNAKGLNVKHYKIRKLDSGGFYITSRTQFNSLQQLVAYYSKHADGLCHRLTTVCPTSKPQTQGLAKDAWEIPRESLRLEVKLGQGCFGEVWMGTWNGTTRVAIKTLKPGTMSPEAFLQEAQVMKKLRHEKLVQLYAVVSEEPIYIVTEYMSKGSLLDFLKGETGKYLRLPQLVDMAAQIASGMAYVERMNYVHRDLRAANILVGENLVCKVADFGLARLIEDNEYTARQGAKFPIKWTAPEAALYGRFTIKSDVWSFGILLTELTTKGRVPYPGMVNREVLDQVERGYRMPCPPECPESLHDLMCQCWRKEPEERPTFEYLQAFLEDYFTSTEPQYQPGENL

Take `C[C@@H]1[C@H](NC(=O)c2ccc(C3CC3)cc2F)CCCN1c1cnc(C(N)=O)c(Nc2ccc(N3CCOCC3)cc2)n1` [Example D-73, 5-[(2R,3R)-3-(4-cyclopropyl-2-fluorobenzamido)-2-methylpiperidin-1-yl]-3-{[4-(morpholin-4-yl)phenyl]amino}pyrazine-2-carboxamide]: the IC50 fell in the range of 10 to 100 nM against TEC, 100 to 1000 nM on SRC and 100 to 1000 nM at ITK.
As to `CN(C)C(=O)N[C@H]1CCCN(c2cnc(C(N)=O)c(Nc3ccc(C4(C)CCN(C5CCCC5)CC4)cc3)n2)[C@H]1CO` [Example D-59, 3-{[4-(1-cyclopentyl-4-methylpiperidin-4-yl)phenyl]amino}-5-[(2R,3S)-3-[(dimethylcarbamoyl)amino]-2-(hydroxymethyl)piperidin-1-yl]pyrazine-2-carboxamide], the IC50 was greater than 10000 nM on TEC, 1000 to 10000 nM at SRC and 1000 to 10000 nM against ITK.
On to `C[C@@H]1[C@H](NC(=O)c2ccc(C3CC3)cc2)CCCN1c1cnc(C(N)=O)c(Nc2cnn(CC3CCOCC3)c2)n1` [Example D-319, 5-[(2R,3R)-3-(4-cyclopropylbenzamido)-2-methylpiperidin-1-yl]-3-{[1-(oxan-4-ylmethyl)-1H-pyrazol-4-yl]amino}pyrazine-2-carboxamide], for which the figures for the IC50 against TEC, on SRC and against ITK were no more than 10 nM, 10 to 100 nM and 100 to 1000 nM, respectively.
The matching figures for `C[C@@H]1[C@H](NC(=O)c2ccc(C3CC3)cc2F)CCCN1c1cnc(C(N)=O)c(Nc2cnn(C)c2)n1` [Example D-1, 5-[(2R,3R)-3-(4-cyclopropyl-2-fluorobenzamido)-2-methylpiperidin-1-yl]-3-[(1-methyl-1H-pyrazol-4-yl)amino]pyrazine-2-carboxamide]: 10 to 100 nM, 100 to 1000 nM and 100 to 1000 nM.
The matching figures for `C[C@@H]1[C@H](N2CCN(C)C2=O)CCCN1c1cnc(C(N)=O)c(Nc2ccc(C3(C)CCN(C4CC4)CC3)cc2)n1` [Example D-38, 3-{[4-(1-cyclopropyl-4-methylpiperidin-4-yl)phenyl]amino}-5-[(2R,3R)-2-methyl-3-(3-methyl-2-oxoimidazolidin-1-yl)piperidin-1-yl]pyrazine-2-carboxamide]: 10 to 100 nM, 10 to 100 nM and 10 to 100 nM.
The matching figures for `Cn1cc(Nc2nc(N3CC[C@@H](O)[C@H](NC(=O)c4ccc(C5CC5)cc4)C3)cnc2C(N)=O)cn1` (racemic) [Example D-26, (racemic)-trans-5-[3-(4-cyclopropylbenzamido)-4-hydroxypiperidin-1-yl]-3-[(1-methyl-1H-pyrazol-4-yl)amino]pyrazine-2-carboxamide]: 100 to 1000 nM, 1000 to 10000 nM and 1000 to 10000 nM.
Turning to `C[C@@H]1[C@H](NC(=O)c2ccc(C3CC3)cc2F)CCCN1c1cnc(C(N)=O)c(Nc2ccc(N3CCN(C)CC3)c(F)c2)n1` [Example D-82, 5-[(2R,3R)-3-(4-cyclopropyl-2-fluorobenzamido)-2-methylpiperidin-1-yl]-3-{[3-fluoro-4-(4-methylpiperazin-1-yl)phenyl]amino}pyrazine-2-carboxamide], the IC50 against TEC fell in the range of 10 to 100 nM; at SRC it was 10 to 100 nM; against ITK it was 100 to 1000 nM.
Regarding `CN1CCN(C(=O)c2ccc(Nc3nc(N[C@H]4CC[C@H](NC(=O)c5ccc(C6CC6)cc5F)CC4)cnc3C(N)=O)cc2)CC1` [Example D-70, 3-{[4-(4-methylpiperazine-1-carbonyl)phenyl]amino}-5-{[(1 r,4r)-4-(4-cyclopropyl-2-fluorobenzamido)cyclohexyl]amino}pyrazine-2-carboxamide], the IC50 against TEC, at SRC and against ITK was 100 to 1000 nM each time.
